Test system: NOMO1
Assay: cell viability relative to DMSO control; higher = less cytotoxic
Settings: 48 h
Outline: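 Viability is a per-plate percentage relative to DMSO wells, with cell-free wells as background. CellTiter-Glo One luminescence was read after 48 h at 37°C on 1536-well plates (5 μl) of NOMO1 or SEM (500 cells/well) or P12-Ichikawa (1000 cells/well) leukemia cells. The cells had been adapted for at least four passages in each medium and pin-dosed with library compounds in DMSO from 47 μM to 0.79 nM in 11 threefold steps.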

[1] = HPLM + 10% dialyzed FBS, 0.000781 µM
[2] = HPLM + 10% dialyzed FBS, 0.00234 µM
[3] = HPLM + 10% dialyzed FBS, 0.00702 µM
[4] = HPLM + 10% dialyzed FBS, 0.0211 µM
[5] = HPLM + 10% dialyzed FBS, 0.0632 µM
[6] = HPLM + 10% dialyzed FBS, 0.19 µM
[7] = HPLM + 10% dialyzed FBS, 0.569 µM
[8] = HPLM + 10% dialyzed FBS, 1.71 µM
[9] = HPLM + 10% dialyzed FBS, 5.12 µM
[10] = HPLM + 10% dialyzed FBS, 15.4 µM
[11] = HPLM + 10% dialyzed FBS, 46.1 µM
[12] = RPMI 5 mM glucose + 10% FBS, 0.000781 µM
[13] = RPMI 5 mM glucose + 10% FBS, 0.00234 µM
[14] = RPMI 5 mM glucose + 10% FBS, 0.00702 µM
[15] = RPMI 5 mM glucose + 10% FBS, 0.0211 µM
[16] = RPMI 5 mM glucose + 10% FBS, 0.0632 µM
[17] = RPMI 5 mM glucose + 10% FBS, 0.19 µM
[18] = RPMI 5 mM glucose + 10% FBS, 0.569 µM
[19] = RPMI 5 mM glucose + 10% FBS, 1.71 µM
[20] = RPMI 5 mM glucose + 10% FBS, 5.12 µM
[21] = RPMI 5 mM glucose + 10% FBS, 15.4 µM
[22] = RPMI 5 mM glucose + 10% FBS, 46.1 µM
[23] = RPMI 5 mM glucose + 10% dialyzed FBS, 0.000781 µM
[24] = RPMI 5 mM glucose + 10% dialyzed FBS, 0.00234 µM
[25] = RPMI 5 mM glucose + 10% dialyzed FBS, 0.00702 µM
[26] = RPMI 5 mM glucose + 10% dialyzed FBS, 0.0211 µM
[27] = RPMI 5 mM glucose + 10% dialyzed FBS, 0.0632 µM
[28] = RPMI 5 mM glucose + 10% dialyzed FBS, 0.19 µM
[29] = RPMI 5 mM glucose + 10% dialyzed FBS, 0.569 µM
[30] = RPMI 5 mM glucose + 10% dialyzed FBS, 1.71 µM
[31] = RPMI 5 mM glucose + 10% dialyzed FBS, 5.12 µM
[32] = RPMI 5 mM glucose + 10% dialyzed FBS, 15.4 µM
[33] = RPMI 5 mM glucose + 10% dialyzed FBS, 46.1 µM

Row | SMILES | cell viability [1] | cell viability [2] | cell viability [3] | cell viability [4] | cell viability [5] | cell viability [6] | cell viability [7] | cell viability [8] | cell viability [9] | cell viability [10] | cell viability [11] | cell viability [12] | cell viability [13] | cell viability [14] | cell viability [15] | cell viability [16] | cell viability [17] | cell viability [18] | cell viability [19] | cell viability [20] | cell viability [21] | cell viability [22] | cell viability [23] | cell viability [24] | cell viability [25] | cell viability [26] | cell viability [27] | cell viability [28] | cell viability [29] | cell viability [30] | cell viability [31] | cell viability [32] | cell viability [33]
1 | CCN(CC)CCNC(=O)c1c(C)[nH]c(/C=C2\C(=O)Nc3ccc(F)cc32)c1C | 79.5% | 103% | 109% | 124% | 87.1% | 23.4% | 30.7% | 23% | 29.1% | 6.81% | 4.98% | 106% | 103% | 109% | 113% | 115% | 45.5% | 16.1% | 21.9% | 24.7% | 11.5% | 3.98% | 97.7% | 110% | 100% | 117% | 117% | 43.1% | 22.3% | 25.9% | 31.8% | 11.3% | 3.82%
2 | Oc1cc(-c2nc(-c3ccccc3)[nH]c2-c2ccncc2)ccc1Cl | 111% | 119% | 119% | 112% | 123% | 120% | 108% | 84.2% | 78.8% | 49.2% | 21.4% | 106% | 104% | 107% | 107% | 121% | 103% | 109% | 102% | 107% | 87.1% | 32.2% | 101% | 107% | 121% | 107% | 123% | 109% | 104% | 92.1% | 81.3% | 74.8% | 32%
3 | O=C(c1cncc(Br)c1)N1CCC(N2CCCC2)CC1 | 97.9% | 122% | 124% | 110% | 103% | 105% | 97.1% | 105% | 103% | 92.2% | 85.3% | 93.5% | 95.9% | 110% | 90.6% | 91.4% | 96.5% | 102% | 93.1% | 94.6% | 85.4% | 84.4% | 112% | 105% | 106% | 106% | 105% | 103% | 100% | 100% | 98.7% | 98.7% | 95.9%
4 | CNc1nc(-c2ccc3c(N)n[nH]c3c2)cc(N2C[C@@H](C(=O)NC3CCCCC3)CC[C@H]2C)n1 | 76.9% | 82.3% | 79.8% | 95% | 94.8% | 89.2% | 68.2% | 64.5% | 55.9% | 64.2% | 17.7% | 73.9% | 78% | 76.2% | 80.4% | 89.3% | 80.3% | 77.1% | 84.2% | 69.9% | 73.8% | 19% | 75.9% | 91.8% | 79.2% | 92.5% | 90.2% | 85.5% | 70.3% | 70.8% | 68.2% | 68.2% | 29.7%
5 | CCCOc1ccc(C(=O)OCCN(CC)CC)cc1N | 109% | 124% | 124% | 121% | 140% | 130% | 132% | 139% | 121% | 112% | 106% | 107% | 115% | 122% | 123% | 107% | 120% | 113% | 111% | 123% | 118% | 118% | 111% | 127% | 115% | 118% | 120% | 128% | 121% | 119% | 117% | 131% | 121%
6 | CN(C)CCCC1(c2ccc(F)cc2)OCc2cc(C#N)ccc21 (stereo unspecified) | 107% | 103% | 111% | 90.7% | 100% | 94% | 91.8% | 106% | 68.4% | 88.8% | 74% | 88.5% | 101% | 102% | 88.9% | 98.5% | 89.5% | 91.4% | 106% | 57.9% | 79.9% | 84.4% | 87.5% | 90% | 96.4% | 85% | 90.4% | 84.5% | 77.4% | 82.2% | 55.3% | 81% | 72.6%
7 | CC1(C)CC\C2=C(/O1)C3=C(C=CC=C3)C(=O)C2=O | 123% | 112% | 113% | 101% | 112% | 104% | 103% | 118% | 99% | 98.4% | 4.14% | 113% | 104% | 115% | 103% | 108% | 111% | 90.9% | 107% | 108% | 88.2% | 5.12% | 109% | 97.4% | 109% | 113% | 103% | 102% | 101% | 99.9% | 100% | 96.3% | 6.57%

— the supplement of paper PMC11451515
